The assay has as its target T1, Human V1b receptor (Homo sapiens, UniProt P47901).
T1 sequence (P47901 1-424): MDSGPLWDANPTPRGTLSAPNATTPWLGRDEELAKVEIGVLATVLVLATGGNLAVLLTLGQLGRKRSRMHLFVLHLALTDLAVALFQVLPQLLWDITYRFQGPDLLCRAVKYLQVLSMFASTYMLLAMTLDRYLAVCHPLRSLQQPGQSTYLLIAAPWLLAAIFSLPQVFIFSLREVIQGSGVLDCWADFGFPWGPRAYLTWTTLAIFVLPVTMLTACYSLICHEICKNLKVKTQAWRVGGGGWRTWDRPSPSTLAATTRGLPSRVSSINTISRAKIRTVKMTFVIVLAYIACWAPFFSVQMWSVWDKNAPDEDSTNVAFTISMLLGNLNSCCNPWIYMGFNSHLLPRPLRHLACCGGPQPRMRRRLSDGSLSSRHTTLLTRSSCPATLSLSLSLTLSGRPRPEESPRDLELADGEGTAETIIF
The assay is described as follows: Binding test for V1b receptor ([3H]AVP displacement, crude membrane preparation). On the set-up: expressed in transfected cells; host or cells: 293FT cells (Invitrogen), transient expression; crude membrane preparation. As to conditions: [3H]AVP 0.4 to 1 nmol/L; membranes of 293FT cells transiently expressing human V1b receptor; room temperature, 60 minutes. How it is done: Binding Test for V1b Receptor
Human V1b receptor was transiently expressed in 293FT cells (Invitrogen). The cells were collected and were homogenated in a 15 mmol/L tris-hydrochloric acid buffer (pH 7.4, containing 2 mmol/L magnesium chloride, 0.3 mmol/L ethylenediaminetetracetic acid, and 1 mmol/L glycol ether diaminetetraacetic acid). The resulting homogenate was centrifuged at 50,000×g at 4° C. for 20 minutes. The precipitate was resuspended in a 75 mmol/L tris-hydrochloric acid buffer (pH 7.4, containing 12.5 mmol/L magnesium chloride, 0.3 mmol/L ethylenediaminetetracetic acid, 1 mmol/L glycol ether diamine tetraacetic acid, and 250 mmol/L sucrose) to give a crude membrane preparation, which was stored at −80° C. until the binding test. In the binding test, the crude membrane preparation was diluted with a 50 mmol/L tris-hydrochloric acid buffer (pH 7.4, containing 10 mmol/L magnesium chloride and 0.1% bovine serum albumin), and test compound was serially diluted with DMSO. The diluted crude membrane preparation was incubated with each test compound (final concentration of 0.01 nmol/L to 1 μmol/L) and [^3H]AVP (final concentration: 0.4 to 1 nmol/L) at room temperature for 60 minutes. After the incubation, the mixture was suction filtered through a GF/C filter pretreated with 0.3% polyethyleneimine. The GF/C filter was dried, and a scintillator was added thereto. The radioactivity remaining on the filter was measured using TopCount (PerkinElmer Inc.). The radioactivity in the presence of 10 μmol/L of unlabeled AVP was defined as 0%, and the radioactivity in the absence of unlabeled AVP was defined as 100%. A dose-response curve was plotted from radioactivities in the presence of a test compound at various concentrations, and the 50% inhibitory concentration (IC50 value) of the compound was calculated.

Broadly, the IC50 is the concentration needed to halve the response being measured.

Regarding `CC(CO)NC(=O)Cn1c(-c2cccc(Cl)c2)nn(-c2ccc(CCN3CCOCC3)cc2)c1=O` (racemic) [Ad-20, 2-[3-(3-Chlorophenyl)-1-{4-[2-(morpholin-4-yl)ethyl]phenyl}-5-oxo-1,5-dihydro-4H-1,2,4-triazol-4-yl]-N-(1-hydroxypropan-2-yl)acetamide], the IC50 amounted to 96 nM.
Consider `CC(C)NC(=O)Cn1c(-c2cccc(Cl)c2)nn(-c2ccc(CC(C)N3C4CCC3COC4)cn2)c1=O` (single isomer, unassigned; (+)) [Ad-19-2], for which the IC50 was 17 nM.
Next, `CC(C)NC(=O)Cn1c(-c2cccc(Cl)c2)nn(-c2ccc(CC(C)N3C4CCC3COC4)cn2)c1=O` (single isomer, unassigned; (-)) [Ad-19-1]: 0.59 nM.
The value for `CC(C)NC(=O)Cn1c(-c2cccc(Cl)c2)nn(-c2ccc(CCN3CCC(O)C3)cc2)c1=O` (stereo not drawn) [Aa-6, 2-[3-(3-Chlorophenyl)-1-{4-[2-(3-hydroxypyrrolidin-1-yl)ethyl]phenyl}-5-oxo-1,5-dihydro-4H-1,2,4-triazol-4-yl]-N-(propan-2-yl)acetamide] was 56 nM; that for `CC(C)NC(=O)Cn1c(-c2cccc(Cl)c2)nn(-c2ccc(CCN3CCC(CO)C3)cc2)c1=O` (stereo not drawn) [Aa-7, 2-[3-(3-Chlorophenyl)-1-(4-{2-[3-(hydroxymethyl)pyrrolidin-1-yl]ethyl}phenyl)-5-oxo-1,5-dihydro-4H-1,2,4-triazol-4-yl]-N-(propan-2-yl)acetamide] was 34 nM.
The value for `CC(C)NC(=O)Cn1c(-c2cccc(Cl)c2)nn(-c2ccc(CCN3CC4CCC(C3)O4)cc2)c1=O` [Aa-9, 2-[3-(3-Chlorophenyl)-1-{4-[2-(8-oxa-3-azabicyclo[3.2.1]oct-3-yl)ethyl]phenyl}-5-oxo-1,5-dihydro-4H-1,2,4-triazol-4-yl]-N-(propan-2-yl)acetamide] was 18 nM.
On to `CC(C)NC(=O)Cn1c(-c2cccc(Cl)c2)nn(-c2ccc(CCN3CCCCC3)cc2)c1=O` [Aa-11, 2-[3-(3-Chlorophenyl)-5-oxo-1-{4-[2-(piperidin-1-yl)ethyl]phenyl}-1,5-dihydro-4H-1,2,4-triazol-4-yl]-N-(propan-2-yl)acetamide], for which the IC50 stood at 37 nM.
The value for `CC(C)NC(=O)Cn1c(-c2cccc(Cl)c2)nn(-c2ccc(CCN3CCCOCC3)cc2)c1=O` [Aa-13, 2-[3-(3-Chlorophenyl)-1-{4-[2-(1,4-oxazepan-4-yl)ethyl]phenyl}-5-oxo-1,5-dihydro-4H-1,2,4-triazol-4-yl]-N-(propan-2-yl)acetamide] was 20 nM.
Turning to `CC(C)NC(=O)Cn1c(-c2cccc(Cl)c2)nn(-c2ccc(CCN3C4CCC3CC(O)C4)cn2)c1=O` (stereo not drawn) [Ab-4, 2-[3-(3-Chlorophenyl)-1-{5-[2-(3-hydroxy-8-azabicyclo[3.2.1]oct-8-yl)ethyl]pyridin-2-yl}-5-oxo-1,5-dihydro-4H-1,2,4-triazol-4-yl]-N-(propan-2-yl)acetamide], the IC50 was 20 nM.
The value for `CC(C)NC(=O)Cn1c(-c2cccc(Cl)c2)nn(-c2ccc(CCN3CCOCC3)nc2)c1=O` [Ac-2, 2-[3-(3-Chlorophenyl)-1-{6-[2-(morpholin-4-yl)ethyl]pyridin-3-yl}-5-oxo-1,5-dihydro-4H-1,2,4-triazol-4-yl]-N-(propan-2-yl)acetamide] was 79 nM.
Next, `CC(C)(C)NC(=O)Cn1c(-c2cccc(Cl)c2)nn(-c2ccc(CCN3CCOCC3)cc2)c1=O` [Ad-1, N-Tert-Butyl-2-[3-(3-chlorophenyl)-1-{4-[2-(morpholin-4-yl)ethyl]phenyl}-5-oxo-1,5-dihydro-4H-1,2,4-triazol-4-yl]acetamide]: 2.5 nM; `CC(NC(=O)Cn1c(-c2cccc(Cl)c2)nn(-c2ccc(CCN3CCOCC3)cc2)c1=O)C(F)(F)F` (stereo not drawn) [Ad-2, 2-[3-(3-Chlorophenyl)-1-{4-[2-(morpholin-4-yl)ethyl]phenyl}-5-oxo-1,5-dihydro-4H-1,2,4-triazol-4-yl]-N-(1,1,1-trifluoropropan-2-yl)acetamide]: 15 nM.
The value for `CC(C)(CO)NC(=O)Cn1c(-c2cccc(Cl)c2)nn(-c2ccc(CCN3CCOCC3)cc2)c1=O` [Ad-3, 2-[3-(3-Chlorophenyl)-1-{4-[2-(morpholin-4-yl)ethyl]phenyl}-5-oxo-1,5-dihydro-4H-1,2,4-triazol-4-yl]-N-(1-hydroxy-2-methylpropan-2-yl)acetamide] was 55 nM.
Turning to `O=C(Cn1c(-c2cccc(Cl)c2)nn(-c2ccc(CCN3CCOCC3)cc2)c1=O)NC1CCC1` [Ad-4, 2-[3-(3-Chlorophenyl)-1-{4-[2-(morpholin-4-yl)ethyl]phenyl}-5-oxo-1,5-dihydro-4H-1,2,4-triazol-4-yl]-N-cyclobutylacetamide], the IC50 was 102 nM.
The value for `O=C(Cn1c(-c2cccc(Cl)c2)nn(-c2ccc(CCN3CCOCC3)cc2)c1=O)NC1COC1` [Ad-5, 2-[3-(3-Chlorophenyl)-1-{4-[2-(morpholin-4-yl)ethyl]phenyl}-5-oxo-1,5-dihydro-4H-1,2,4-triazol-4-yl]-N-(oxetan-3-yl)acetamide] was 97 nM; that for `O=C(Cn1c(-c2cccc(Cl)c2)nn(-c2ccc(CCN3CCOCC3)cc2)c1=O)NCC1CC1` [Ad-6, 2-[3-(3-Chlorophenyl)-1-{4-[2-(morpholin-4-yl)ethyl]phenyl}-5-oxo-1,5-dihydro-4H-1,2,4-triazol-4-yl]-N-(cyclopropylmethyl)acetamide] was 62 nM.
Next, `CC(C)NC(=O)Cn1c(-c2cccc(Cl)c2)nn(-c2ccc(CCN3CCOCC3)c(F)c2)c1=O` [Ad-7, 2-[3-(3-Chlorophenyl)-1-{3-fluoro-4-[2-(morpholin-4-yl)ethyl]phenyl}-5-oxo-1,5-dihydro-4H-1,2,4-triazol-4-yl]-N-(propan-2-yl)acetamide]: 3.8 nM; `CC(C)NC(=O)Cn1c(-c2cccc(Cl)c2)nn(-c2ccc(CCN3C4CCC3COC4)c(F)c2)c1=O` [Ad-8, 2-[3-(3-Chlorophenyl)-1-{3-fluoro-4-[2-(3-oxa-8-azabicyclo[3.2.1]oct-8-yl)ethyl]phenyl}-5-oxo-1,5-dihydro-4H-1,2,4-triazol-4-yl]-N-(propan-2-yl)acetamide]: 1.5 nM; `COc1cc(-n2nc(-c3cccc(Cl)c3)n(CC(=O)NC(C)C)c2=O)ccc1CCN1CCOCC1` [Ad-9, 2-[3-(3-Chlorophenyl)-1-{3-methoxy-4-[2-(morpholin-4-yl)ethyl]phenyl}-5-oxo-1,5-dihydro-4H-1,2,4-triazol-4-yl]-N-(propan-2-yl)acetamide]: 2.3 nM.
Next, `COc1cc(-n2nc(-c3cccc(Cl)c3)n(CC(=O)NC(C)C)c2=O)ccc1CCN1C2CCC1COC2` [Ad-10, 2-[3-(3-Chlorophenyl)-1-{3-methoxy-4-[2-(3-oxa-8-azabicyclo[3.2.1]oct-8-yl)ethyl]phenyl}-5-oxo-1,5-dihydro-4H-1,2,4-triazol-4-yl]-N-(propan-2-yl)acetamide]: 1.3 nM.
Compound `CC(C)NC(=O)Cn1c(-c2cccc(Cl)c2)nn(-c2ccc(CC(C)N3CCOCC3)cc2)c1=O` (stereo not drawn) [Ad-13, 2-[3-(3-Chlorophenyl)-1-{4-[2-(morpholin-4-yl)propyl]phenyl}-5-oxo-1,5-dihydro-4H-1,2,4-triazol-4-yl]-N-(propan-2-yl)acetamide] registered an IC50 of 2.9 nM.
Next, `CC(C)NC(=O)Cn1c(-c2cccc(Cl)c2)nn(-c2ccc(CC(C)N3C4CCC3COC4)cc2)c1=O` (stereo not drawn) [Ad-14, 2-[3-(3-Chlorophenyl)-1-{4-[2-(3-oxa-8-azabicyclo[3.2.1]oct-8-yl)propyl]phenyl}-5-oxo-1,5-dihydro-4H-1,2,4-triazol-4-yl]-N-(propan-2-yl)acetamide]: 0.54 nM; `CC(C)NC(=O)Cn1c(-c2cccc(Cl)c2)nn(-c2ccc(CC(C)N3CCOCC3)cn2)c1=O` (stereo not drawn) [Ad-15, 2-[3-(3-Chlorophenyl)-1-{5-[2-(morpholin-4-yl)propyl]pyridin-2-yl}-5-oxo-1,5-dihydro-4H-1,2,4-triazol-4-yl]-N-(propan-2-yl)acetamide]: 5.1 nM; `CC(C)NC(=O)Cn1c(-c2cccc(Cl)c2)nn(-c2ccc(CC(C)N3C4CCC3COC4)cn2)c1=O` (stereo not drawn) [Ad-16, 2-[3-(3-Chlorophenyl)-1-{5-[2-(3-oxa-8-azabicyclo[3.2.1]oct-8-yl)propyl]pyridin-2-yl}-5-oxo-1,5-dihydro-4H-1,2,4-triazol-4-yl]-N-(propan-2-yl)acetamide]: 0.92 nM.

Source of the values: patent publication US9193695B2, “1, 2, 4-triazolone derivative and use thereof as an antagonist on the arginine-vasopressin 1B receptor” (TAISHO PHARMACEUTICAL CO., LTD., priority 2010, dated 2015).
